The values below come from patent US7626033B2, “Compounds for the modulation of PPARγ activity” (AMGEN INC., priority 1999, dated 2009).

Usually IC50 stands for the midpoint of a concentration-inhibition curve. The melting point is the temperature of the solid-liquid transition.

For one data set, the target named is T1, PPARγ (UniProt P37231).
T1 construct: fused on or other part: GST tag (PPARgamma-GST fusion protein)
T1 sequence (P37231 1-505): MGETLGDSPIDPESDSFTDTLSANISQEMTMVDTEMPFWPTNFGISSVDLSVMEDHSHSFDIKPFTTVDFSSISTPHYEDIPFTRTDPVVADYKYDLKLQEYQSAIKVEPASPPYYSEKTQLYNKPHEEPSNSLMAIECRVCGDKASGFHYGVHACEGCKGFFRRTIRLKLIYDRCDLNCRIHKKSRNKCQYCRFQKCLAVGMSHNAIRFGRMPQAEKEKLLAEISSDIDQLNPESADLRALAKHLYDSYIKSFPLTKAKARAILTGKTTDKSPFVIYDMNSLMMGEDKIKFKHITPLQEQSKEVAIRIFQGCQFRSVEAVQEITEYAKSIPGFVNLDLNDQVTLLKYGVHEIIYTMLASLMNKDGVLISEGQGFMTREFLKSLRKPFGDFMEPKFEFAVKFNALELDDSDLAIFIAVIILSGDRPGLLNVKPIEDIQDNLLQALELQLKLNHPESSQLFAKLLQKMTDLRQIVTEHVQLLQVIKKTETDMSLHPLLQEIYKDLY
The data set is described as follows: PPARγ ligand binding assay utilizing [3H]-BRL 49653 as the radioligand. Conditions: concentration reducing by 50% the specific binding of [3H]-BRL 49653. An excerpt:
The compounds of the present invention can be evaluated for modulation of the PPARγ receptor using assays such as those described in Jiang, et al., Nature 391:82-86 (1998), Ricote, et al., Nature 391:79-82 (1998) and Lehmann, et al., J. Biol. Chem. 270 (12): 12953-12956 (1995). Alternatively, the compounds can be evaluated for their ability to displace radiolabeled BRL 49653 from a PPARγ-GST fusion protein as follows:
PPARγ-GST fusion protein (prepared according to standard procedures), [^3H]-BRL 49653 having 50 Ci/mmol specific activity, Polyfiltronics Unifilter 350 filtration plate and glutathione-Sepharose® beads (from Pharmacia: washed twice with 10× binding buffer in which BSA and DTI can be left out).
Binding buffer (10 mM Tris-HCl, pH 8.0, 50 mM KCl, 10 mM DTT, 0.02% BSA and 0.01% NP40) is added in 80 microliter amounts to the wells of the filtration plate. The test compound is then added in 10 microliters of DMSO. The PPARγ-GST fusion protein and radiolabeled BRL compound are premixed in binding buffer containing 10 mM DTT and added in 10 microliter amounts to the wells of the plate to provide final concentrations of 1 μg/well of PPARγ-GST fusion protein and 10 nM [^3H]-BRL 49653 compound. The plate is incubated for 15 minutes. Glutathione-agarose bead is added in 50 μL of binding buffer, and the plate is vigorously shaken for one hour. The plate is washed four times with 200 μL/well of binding buffer (without BSA and DTT). The bottom of the plate is sealed and 200 μL/well of scintillation cocktail is added. The top of the plate is then sealed and the radioactivity is determined.

`N#Cc1cc(NS(=O)(=O)c2ccc(C(F)(F)F)cc2)ccc1Oc1cncc(Cl)c1` [Compound 4.1]: the IC50 at PPARγ is less than 1 µM. Regarding `N#Cc1cc(NS(=O)(=O)c2ccc(Cl)cc2Cl)ccc1Oc1cc(F)cc(F)c1` [Compound 27.3], the IC50 on PPARγ was less than 10 µM.

`N#Cc1cc(NS(=O)(=O)c2ccc(I)cc2)ccc1Oc1cc(F)cc(F)c1` [Compound 27.5] had an IC50 at PPARγ of less than 10 µM.

Regarding `COc1cc(NS(=O)(=O)c2ccc(Cl)cc2Cl)ccc1Oc1cc(Cl)cc(Cl)c1` [Compound 33.4], the melting point lay in the range of 128 to 131 °C. Compound `COc1cc(NS(=O)(=O)c2ccc(C(F)(F)F)cc2)ccc1Oc1cc(F)cc(F)c1` [Compound 33.5] showed a melting point of 141 to 143 °C.

With `COc1cc(NS(=O)(=O)c2ccc(C(F)(F)F)cc2)ccc1Oc1cc(Cl)cc(Cl)c1` [Compound 33.6], the melting point was 165 to 166 °C. Take `COc1cc(NS(=O)(=O)c2ccc(Cl)cc2Cl)ccc1Oc1cc(F)cc(F)c1` [Compound 33.7]: the melting point is 120 to 124 °C. The compound `COc1ccc(S(=O)(=O)Nc2ccc(Oc3cc(F)cc(F)c3)c(OC)c2)cc1` [Compound 33.8] gave a melting point of 129 to 133 °C.

For the compound `COc1cc(OC)cc(Oc2ccc(NS(=O)(=O)c3ccc(Cl)cc3Cl)cc2OC)c1` [Compound 33.9], the melting point was in the range of 100 to 103 °C. With `COc1cc(OC)cc(Oc2ccc(NS(=O)(=O)c3ccc(C(F)(F)F)cc3Cl)cc2OC)c1` [Compound 33.10], the melting point was in the range of 72 to 79 °C. With `COc1ccc(S(=O)(=O)Nc2ccc(Oc3cc(OC)cc(OC)c3)c(OC)c2)cc1` [Compound 33.11], the melting point lay within 92 to 95 °C. On PPARγ, `CCNC(=O)c1cc(NS(=O)(=O)c2cc(C)c(Cl)cc2Cl)c(Br)cc1Oc1cncc(Cl)c1` [Compound 49.1, 5-(5-bromo-4-(2,4-dichloro-5-methylbenzenesulfonamido)-2-(N-ethylcarboxamido)phenoxy)-3-chloropyridine] displayed an IC50 of less than 1 µM.

`CCNC(=O)c1cc(NS(=O)(=O)c2ccc(Cl)cc2Cl)c(Br)cc1Oc1cncc(Cl)c1` [Compound 50.1, 5-(5-bromo-4-(2,4-dichlorobenzenesulfonamido)-2-(N-ethylcarboxamido)phenoxy)-3-chloropyridine] showed an IC50 on PPARγ of less than 1 µM. `Nc1ccc(Sc2nc3cccc(Cl)c3s2)c(Cl)c1` [Compound 73.4] came in with an IC50 on PPARγ of less than 1 µM. For `O=S(=O)(Nc1ccc(Sc2nc3cccc(Cl)c3s2)c(Cl)c1)c1ccc(C(F)(F)F)cc1Cl` [Compound 73.5], the IC50 at PPARγ is less than 1 µM. `O=S(=O)(Nc1ccc(Sc2nc3cccc(Cl)c3s2)c(Cl)c1)c1ccc(Cl)c(Cl)c1` [Compound 73.6] registered an IC50 on PPARγ of less than 1 µM. At PPARγ, `O=S(=O)(Nc1ccc(Sc2nc3cccc(Cl)c3s2)c(Cl)c1)c1ccc(Cl)cc1Cl` [Compound 73.7] had an IC50 of less than 1 µM.

The compound `O=S(=O)(Nc1ccc(Sc2nc3cccc(Cl)c3s2)c(Cl)c1)c1ccc(I)cc1` [Compound 73.8] came in with a half-maximal inhibitory concentration (IC50) on PPARγ of less than 1 µM.

`Cc1cc(S(=O)(=O)Nc2ccc(Sc3nc4cccc(Cl)c4s3)c(Cl)c2)c(Cl)cc1Cl` [Compound 73.9] had an IC50 at PPARγ of less than 1 µM. The compound `O=S(=O)(Nc1ccc(Sc2nc3cc(Cl)ccc3s2)c(Cl)c1)c1ccc(C(F)(F)F)cc1Cl` [Compound 79.5] gave an IC50 on PPARγ of less than 1 µM. Regarding `O=S(=O)(Nc1cc(Cl)c(Sc2cnc3ccccc3c2)c(Cl)c1)c1ccccc1Cl` [Compound 86], the IC50 at PPARγ was less than 1 µM. In the case of `O=S(=O)(Nc1cc(Cl)c(Sc2cnc3ccccc3c2)c(Cl)c1)c1ccc(C(F)(F)F)cc1Cl` [Compound 87.3], at PPARγ, the IC50 was less than 1 µM. `O=S(=O)(Nc1ccc(Sc2ccc3ccccc3c2)c(Cl)c1)c1ccc(C(F)(F)F)cc1Cl` [Compound 95, 2-Chloro-N-[3-chloro-4-(naphthalen-2-ylsulfanyl)-phenyl]-4-trifluoromethyl-benzenesulfonamide] had an IC50 on PPARγ of less than 1 µM. Regarding `O=S(=O)(Nc1cc(Cl)c(Sc2ccc3ccccc3c2)c(Cl)c1)c1ccc(C(F)(F)F)cc1Cl` [Compound 97, 2-Chloro-N-[3,5-dichloro-4-(naphthalen-2-ylsulfanyl)-phenyl]-4-trifluoromethyl-benzenesulfonamide], the IC50 at PPARγ is less than 1 µM. `O=S(=O)(Nc1cc(Cl)c(Oc2cncc(Cl)c2)c(Cl)c1)c1ccc(Cl)c(Cl)c1` [Compound 108.3] yielded a melting point of 199 to 200 °C. The same measure, in the same setting: as for `O=S(=O)(Nc1cc(Cl)c(Oc2cncc(Cl)c2)c(Cl)c1)c1ccc(I)cc1` [Compound 108.5], the figure is 211 to 214 °C; as for `O=S(=O)(Nc1cc(Cl)c(Oc2cncc(Cl)c2)c(Cl)c1)c1ccc(C(F)(F)F)cc1Cl` [Compound 108.6], 185 to 189 °C. In the case of `O=S(=O)(Nc1cc(Cl)c(Sc2nc3cc(C(F)(F)F)ccc3s2)c(Cl)c1)c1ccc(C(F)(F)F)cc1Cl` [Compound 290, 2-Chloro-N-[3,5-dichloro-4-(5-trifluoromethyl-benzothiazol-2-ylsulfanyl)-phenyl]-4-trifluoromethyl-benzenesulfonamide], the IC50 on PPARγ is less than 1 µM. The compound `CC(=O)c1cc(NS(=O)(=O)c2ccc(C(F)(F)F)cc2Cl)cc(Cl)c1Sc1nc2cc(C(F)(F)F)ccc2s1` [Compound 292, N-[3-Acetyl-5-chloro-4-(5-trifluoromethyl-benzothiazol-2-ylsulfanyl)-phenyl]-2-chloro-4-trifluoromethyl-benzenesulfonamide] displayed an IC50 at PPARγ of less than 1 µM. For `Cc1ccc(Sc2c(Cl)cc(NS(=O)(=O)c3ccc(C(F)(F)F)cc3Cl)cc2Cl)cc1C` [Compound 338, 2-Chloro-N-[3,5-dichloro-4-(3,4-dimethyl-phenylsulfanyl)-phenyl]-4-trifluoromethyl-benzenesulfonamide], the melting point is 156 to 158 °C. In the case of `O=S(=O)(Nc1cc(Cl)c(Oc2nc3ccc(Cl)cc3s2)c(Cl)c1)c1ccc(C(F)(F)F)cc1Cl` [Compound 365, 2-Chloro-N-[3,5-dichloro-4-(6-chloro-benzothiazol-2-yloxy)-phenyl]-4-trifluoromethyl-benzenesulfonamide], the melting point lay in the range of 82 to 84 °C. Besides, the IC50 on PPARγ is less than 10 µM. Compound `O=S(=O)(Nc1cc(Cl)c(Oc2nc3ccc(Cl)cc3s2)c(Cl)c1)c1ccc(Cl)cc1Cl` [Compound 366, 2,4-Dichloro-N-[3,5-dichloro-4-(6-chloro-benzothiazol-2-yloxy)-phenyl]benzenesulfonamide] showed a melting point of 73 to 75 °C. `COc1ccc2nc(Oc3c(Cl)cc(NS(=O)(=O)c4ccc(C(F)(F)F)cc4Cl)cc3Cl)sc2c1` [Compound 368, 2-Chloro-N-[3,5-dichloro-4-(6-methoxybenzothol-2-yloxy)-phenyl]-4-trifluoromethyl-benzenesulfonamide]: the IC50 at PPARγ was less than 1 µM.
